Each structure is given as a SMILES string.

The subject of series [1] is ovalbumin-sensitised mice. The series can be described thus: Ovalbumin-sensitised mice, a chronic model of asthma in vivo (Assay 8). Conditions: mean ± s.e.mean, oral gavage 20 days: 2 3 mg/kg/day, 32 30 mg/kg/day, budesonide 1 mg/kg/day, montelukast 10 mg/kg/day; for Eosinophil infiltration / IL-4 concentration / IL-13 concentration: BAL fluid day 55; for Eosinophil infiltration: sensitised 192.1 ± 33.2; for IL-4 concentration: sensitised 231.2 ± 62.4; for IL-13 concentration: sensitised 241.9 ± 89.3; for Histopathology score: lung remodelling, day 55, sensitised 541.6 ± 36.1; for Increase in penH: methacholine challenge, day 54, sensitised 193.0 ± 61.7. The procedure: Mice (BALB/c from Harlan-Olac) were sensitised to ovalbumin using two interperitoneal injections of ovalbumin (10 μg) and alum (200 μl) on day 1 and 14 followed by a 20 min, daily exposure to a ovalbumin aerosol (5%) on days 19-23 and then a thrice weekly 20 min, exposure to a ovalbumin aerosol (5%) on days 24-55. […] On day 54, mice were placed in BUXCO four chamber whole body plethysmographs and breathing-associated pressure changes were recorded which were then used to calculate enhanced pause (penH), a measurement of airways resistance, in response to a methacholine challenge.
On day 55 the mice were killed and brochoalveolar lavage (BAL) fluid was collected and cytospins prepared to measure eosinophil infiltration. In addition, concentrations of interleukin-4 (IL-4) and interleukin-13 (IL-13) were measured in the BAL fluid. Furthermore, lung samples were taken, examined by a histopathologist and scored using a grading system to describe the degree of lung remodelling.

The test system of series [2] is IL-1α-induced PGE2 release. The series can be described thus: IL-1α-induced PGE2 release in human diploid lung fibroblasts (WI-38) (Assay 5). It is filed as cell-based. Conditions: Homo sapiens, WI-38 cells, IL-1α 1 nM, overnight. Summed up: (§1)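 Cell viability was read by Alamar Blue fluorescence (530/590 nm) after 4 h at 37 °C, following an overnight 37 °C incubation of human lung fibroblasts with 1 nM IL-1α and compound (3 or 30 μM) in 10% FBS MEM, pH 7.3. Supernatant PGE2 was measured by radioimmunoassay to derive percent inhibition.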

A further series deals with WI-38 cells. The series is described as follows: Viability of WI-38 cells, Alamar Blue (Assay 5). The format is cell-based, human. Put shortly: as §1
(Alamar Blue is a resazurin reagent that responds to reducing activity.)

The test system of series [3] is 5-HT-induced contractions in guinea pig ileum. The series can be described thus: Inhibition of 5-HT-induced contractions in guinea pig ileum (Assay 3). Conditions: Cavia porcellus, 5-HT 2.6 μM, read-out: Inhibition of 5-HT-induced contraction (%). Put shortly:
(§2)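 Ileal strips from male Duncan Hartley guinea pigs were held at 1 g tension in 32° C oxygenated Krebs (pH 7.4) with isotonic transducers. After control contractions to 5-HT (2.6 μM) or histamine (1.7 μM), compound at 3 and 30 μM was added, its own effect noted, and agonist re-applied.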

The subject of series [4] is histamine-induced contractions in guinea pig ileum. The series is described as follows: Inhibition of histamine-induced contractions in guinea pig ileum (Assay 3). Particulars: Cavia porcellus, histamine 1.7 μM, read-out: Inhibition of histamine-induced contraction (%). Summed up: as §2

As to `COc1cc(/C=C/C(=O)CC(=O)c2ccc(C)c(Cl)c2)ccc1O` [Compound 98, (E)-1-(3-Chloro-4-methylphenyl)-5-(4-hydroxy-3-methoxyphenyl)pent-4-ene-1,3-dione], the melting point lay in the range of 70 to 72 °C.

For `COc1cc(/C=C/C(=O)CC(=O)C2CC2)ccc1O` [Compound 37, (E)-1-Cyclopropyl-5-(4-hydroxy-3-methoxyphenyl)-pent-4-ene-1,3-dione], the melting point was in the range of 74.5 to 79 °C.

With `COc1cc(/C=C/C(=O)CC(=O)c2ccccc2C)ccc1O` [Compound 103, (E)-5-(4-Hydroxy-3-methoxyphenyl)-1-o-tolylpent-4-ene-1,3-dione], the melting point was 96 °C.

In turn, `COc1cc(C=CC(=O)CC(=O)c2ccc(Cl)cc2)ccc1O` [Compound 53, 1-(4-Chlorophenyl)-5-(4-hydroxy-3-methoxyphenyl)pent-4-ene-1,3-dione] returned a melting point of 57 to 63 °C.

Take `COc1cc(/C=C/C(=O)C(C)(C)C(=O)C(C)(C)C)ccc1O` [Compound 91, (E)-1-(4-Hydroxy-3-methoxyphenyl)-4,4,6,6-tetramethylhept-1-ene-3,5-dione]: the melting point is 98 to 99 °C.

As for `COc1cc(/C=C/C(=O)CC(=O)c2ccc(Cl)cc2C)ccc1O` [Compound 96, (E)-1-(4-Chloro-2-methylphenyl)-5-(4-hydroxy-3-methoxyphenyl)pent-4-ene-1,3-dione], the melting point was 78 °C.

Regarding `COc1cc(/C=C/C(=O)CC(=O)c2ccc(C#N)cc2)ccc1O` [Compound 101, (E)-1-(4-Cyanophenyl)-5-(4-hydroxy-3-methoxyphenyl)pent-4-ene-1,3-dione], the melting point was in the range of 128 to 130 °C.

For the compound `COc1cc(C=CC(=O)CC(=O)c2ccc(Cl)cc2Cl)ccc1O` [Compound 56, 1-(2,4-Dichlorophenyl)-5-(4-hydroxy-3-methoxyphenyl)pent-4-ene-1,3-dione], the melting point was 86 to 87 °C.

In the case of `CC(C)(O)c1ccccc1CC[C@@H](SCC1(CC(=O)O)CC1)c1cccc(/C=C/c2ccc3ccc(Cl)cc3n2)c1` [montelukast, reference compound], in series [1], the Eosinophil infiltration was 124.3 ± 24.8% of control, the IL-4 concentration is reported as 58.2 ± 37.2% of control, the IL-13 concentration is 73.2 ± 55.3% of control and the Histopathology score was 450.0 ± 38.25% of control. In addition, in series [1], the “Increase in penH” value is on record as 187.6 ± 31.9% of control.

The compound `COc1cc(/C=C/C(=O)CC(=O)c2cccc(C)c2)ccc1O` [Compound 104, (E)-5-(4-Hydroxy-3-methoxyphenyl)-1-m-tolylpent-4-ene-1,3-dione] registered a melting point of 52 °C.

As to `COc1cc(/C=C/C(=O)CC(=O)c2ccc3ccccc3c2)c(Cl)cc1O` [Compound 105, (E)-5-(2-Chloro-4-hydroxy-5-methoxyphenyl)-1-(naphthalene-3-yl)pent-4-ene-1,3-dione], the melting point was determined as 134 °C.

Turning to `COc1cc(/C=C/C(=O)CC(=O)Cc2ccccc2)ccc1O` [Compound 60, (E)-6-(4-Hydroxy-3-methoxyphenyl)-1-phenyl-hex-5-ene-2,4-dione], the melting point was found to be 106 °C.

In turn, `COc1cc(CCC(=O)CC(=O)c2ccccc2)ccc1OCCN.Cl` gave a melting point of 80 °C.

Consider `CCOc1cc(/C=C/C(=O)CC(=O)c2ccccc2)ccc1O` [Compound 106, (E)-5-(3-Ethoxy-4-hydroxyphenyl)-1-phenylpent-4-ene-1,3-dione], for which the melting point was in the range of 110 to 112 °C.

On to `COc1cc(C=CC(=O)CC(=O)c2ccc(Cl)c(Cl)c2)ccc1O` [Compound 55, 1-(3,4-Dichlorophenyl)-5-(4-hydroxy-3-methoxyphenyl)pent-4-ene-1,3-dione], for which the melting point is 78 to 80 °C.

Compound `COC(=O)c1ccc(C(=O)CC(=O)/C=C/c2ccc(O)c(OC)c2)cc1` [Compound 57, Methyl 4-[(E)-1,3-dioxo-5-(4-hydroxy-3-methoxyphenyl)pent-4-enyl]benzoate] gave a melting point of 187 to 189 °C.

Turning to `CCCC1O[C@@H]2C[C@H]3[C@@H]4CCC5=CC(=O)C=C[C@]5(C)[C@H]4[C@@H](O)C[C@]3(C)[C@]2(C(=O)CO)O1` (some centres unmarked) [budesonide, reference compound], in series [1], the Eosinophil infiltration is 38.4 ± 5.4% of control, the IL-4 concentration was 144.2 ± 59.7% of control, the IL-13 concentration was 199.3 ± 110.1% of control and the Histopathology score is 200.0 ± 27.6% of control. Further, the “Increase in penH” value in series [1] was 184.6 ± 27.7% of control.

Regarding `COc1cc(/C=C/C(=O)CC(=O)c2ccc(Cl)c(C)c2)ccc1O` [Compound 95, (E)-1-(4-Chloro-3-methylphenyl)-5-(4-hydroxy-3-methoxyphenyl)pent-4-ene-1,3-dione], the melting point lay within 68 to 70 °C.

`COc1cc(/C=C/C(=O)CC(=O)c2ccc(O)c(OC)c2)ccc1O` [Compound 47, (E)-1,5-Bis-(4-hydroxy-3-methoxyphenyl)-pent-4-ene-1,3-dione] gave a melting point of 170 to 172 °C. In series [2] (3 μM), the inhibition at 3 µM turned out to be 10%. Moreover, the inhibition at 30 µM in series [2] (30 μM) is 109%. The “Decrease in cell viability (%)” value in the series with WI-38 cells (3 μM) came out at 1%. In addition, in the series on WI-38 cells (30 μM), the “Decrease in cell viability (%)” value came out at 11%. Moreover, the inhibition at 3 µM in series [3] (3 μM) was determined as 6%. For the same compound, the inhibition at 30 µM in series [3] (30 μM) is 33%. In series [4] (3 μM), the inhibition at 3 µM was found to be 5%. Further, the inhibition at 30 µM in series [4] (30 μM) was found to be 23%.

`COc1cc(/C=C/C(=O)CC(=O)c2ccc(C(C)(C)C)cc2)ccc1O` [Compound 102, (E)-1-(4-tert-Butylphenyl)-5-(4-hydroxy-3-methoxyphenyl)pent-4-ene-1,3-dione] had a melting point of 87 to 88 °C.

As for `COc1cc(/C=C/C(=O)CC(=O)c2ccccc2Cl)ccc1O` [Compound 94, (E)-1-(2-Chlorophenyl)-5(4-hydroxy-3-methoxyphenyl)pent-4-ene-1,3-dione], the melting point turned out to be 89 °C.

For the compound `COc1cc(C=CC(=O)CC(=O)c2cccc(Cl)c2)ccc1O` [Compound 54, 1-(3-Chlorophenyl)-5-(4-hydroxy-3-methoxyphenyl)pent-4-ene-1,3-dione], the melting point lay within 54 to 55 °C.

Usually melting point stands for the temperature of the solid-liquid transition. As usually defined, the inhibition is the drop in the measured response relative to a control, in per cent.

Source of the values: patent US7589123B2, “Chemical compounds” (Phytopharm PLC, priority 2006, dated 2009).
